Test results taken from PMC6337383, “Discovery of Potent Inhibitors for the Large Neutral Amino Acid Transporter 1 (LAT1) by Structure-Based Methods” (International Journal of Molecular Sciences, 2018).
Values joined by “and” are separate entries in the source; they are usually repeats but may differ in a detail not shown here. Equal values may be shown once. “Also recorded” adds a separate entry of the source.

Legend:
recombinant human LAT1 [1] = biological target: T1, recombinant human LAT1 (Homo sapiens, UniProt Q01650); details: cited from earlier work
T1 construct: made in house; host or cells: E. coli
T1 sequence (Q01650 whole entry): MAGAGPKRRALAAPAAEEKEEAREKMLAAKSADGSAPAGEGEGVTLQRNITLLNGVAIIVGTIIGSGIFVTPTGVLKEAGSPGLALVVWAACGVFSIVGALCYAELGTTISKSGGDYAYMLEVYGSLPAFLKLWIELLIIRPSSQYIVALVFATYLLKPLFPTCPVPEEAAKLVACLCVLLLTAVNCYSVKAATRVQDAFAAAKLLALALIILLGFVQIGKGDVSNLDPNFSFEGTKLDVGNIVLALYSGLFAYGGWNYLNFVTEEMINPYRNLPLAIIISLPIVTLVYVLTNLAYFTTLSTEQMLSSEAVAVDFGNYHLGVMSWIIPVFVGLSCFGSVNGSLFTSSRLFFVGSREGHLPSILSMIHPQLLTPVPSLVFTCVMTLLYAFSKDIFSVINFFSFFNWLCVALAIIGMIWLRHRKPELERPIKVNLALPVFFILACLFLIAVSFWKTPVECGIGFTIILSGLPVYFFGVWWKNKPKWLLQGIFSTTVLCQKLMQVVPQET

recombinant human LAT1 [2] = biological target: T1, recombinant human LAT1; assay: Inhibition of LAT1 mediated [3H]-His transport in proteoliposomes reconstituted with recombinant purified human LAT1; format: biochemical; parameters: Dose-response analysis, Mean / Dose-response analysis, single experiments: unit not given here; details: for LAT1 inhibition, activity in words: 100 μM compound, [3H]-His uptake in proteoliposomes; for % Residual Activity: 100 µM concentration, n = 3, Table S6; for IC50: 5 μM [3H]-His, proteoliposomes containing 10 mM His, mean ± S.D., three experiments; for inhibition at 100 µM: 100 µM compound; for Dose-response analysis, single experiments: Exp. 1, Exp. 2, Exp. 3 in this order; for Dose-response analysis, Mean: mean of Exp. 1-3; for times more potent than 1: ratio of IC50 values versus 1 (BCH)
Experimental: All 30 compounds were evaluated for their potency to inhibit LAT1 mediated histidine transport in proteoliposomes reconstituted with recombinant purified human LAT1 (see Methods). […]
Human LAT1 was over-expressed in E. coli and was purified as previously described. In brief, solubilized cell lysate was centrifuged (12,000× g, 10 min, 4 °C); supernatant was applied on a His-Trap HP column (5 mL Ni Sepharose) connected to ÄKTA start system. The column was equilibrated with 10 mL buffer (20 mM Tris HCl pH 8.0, 10% glycerol, 200 mM NaCl, 0.1% sarkosyl) prior to supernatant application. The column was washed with 10 mL buffer (20 mM Tris HCl pH 8.0, 10% glycerol, 200 mM NaCl, 0.05% DDM, and 2 mM DTE) and the protein was eluted with the same buffer plus 400 mM imidazole. Purified protein was desalted, in order to remove imidazole, using a PD-10 column in a buffer containing 20 mM Tris HCl pH 8.0, 10% glycerol, 0.05% DDM and 10 mM DTE.
The purified human LAT1 was reconstituted by detergent removal approach using the batch-wise method, as previously described. In brief, the initial mixture contained: 4 μg of purified protein, 100 μL of 10% C12E8, 100 μL of 10% egg yolk phospholipids (w/v) in the form of liposomes that were prepared as previously described, 20 mM Tris HCl pH 7.5, and 10 mM L-His in a final volume of 700 μL. This mixture was incubated with 0.5 g of Amberlite XAD-4 for 90 min at 23 °C, 1200 rpm to retain detergent.
To perform transport assays, the external substrate was removed by gel filtration chromatography: 600 μL of proteoliposomes were passed through a Sephadex G-75 column (0.7 cm diameter × 15 cm height) pre-equilibrated with 20 mM Tris HCl pH 7.5 and a concentration of sucrose to balance internal osmolarity. Transport was started adding 5 μM [^3H]-His to proteoliposomes and stopped after 30 min according to the stop inhibitor method, as previously described. In brief, in controls 1.5 µM HgCl2 was added at time zero and radioactivity was subtracted to samples for calculating net transport. After stopping the transport reaction, 100 μL of proteoliposomes was subjected to gel filtration chromatography using a Sephadex G-75 column (0.6 cm diameter × 8 cm height), to separate the external from the internal radioactivity. Proteoliposomes were eluted with 1 mL 50 mM NaCl in 4 mL scintillation mixture and counted. […] Protein concentration was estimated by Chemidoc imaging system1 [104] to calculate the human LAT1 specific activity.

LAT1 = details: experimental value, compared with MM-PBSA prediction

## FC(F)(F)Oc1ccc(/N=c2\ssnc2Cl)cc1 [Compound 3, (Z)-4-chloro-N-(4-(trifluoromethoxy)phenyl)-5H-1,2,3-dithiazol-5-imine]
Recombinant human LAT1 [1]
  inhibition of human LAT1 reconstituted in proteoliposomes, in words: potent inhibition

## N[C@@H](Cc1ccc2ccccc2n1)C(=O)O [Compound 37]
Recombinant human LAT1 [2]
  LAT1 inhibition, activity in words: slightly active
  % Residual Activity: 65.31%

## N[C@@H](CCc1cc(Cl)cc(Cl)c1)C(=O)O [Compound 36]
Recombinant human LAT1 [2]
  IC50: 640 ± 120 nM
  inhibition at 100 µM: > 90%
  LAT1 inhibition, activity in words: highly active; also recorded: almost complete inhibition
  % Residual Activity: 0%
  times more potent than 1: ~ 10
Recombinant human LAT1 [2]; 0.1 [] M compound
  Dose-response analysis, single experiments: 81.30 and 100.31 and 62.08
  Dose-response analysis, Mean: 81.23
Recombinant human LAT1 [2]; 0.2 [] M compound
  Dose-response analysis, Mean: 82.32
Recombinant human LAT1 [2]; 0.5 [] M compound
  Dose-response analysis, Mean: 45.71
Recombinant human LAT1 [2]; 1 [] M compound
  Dose-response analysis, single experiments: 38.13 and 55.14 and 40.82
  Dose-response analysis, Mean: 44.70
Recombinant human LAT1 [2]; 2.5 [] M compound
  Dose-response analysis, Mean: 28.38
Recombinant human LAT1 [2]; 5 [] M compound
  Dose-response analysis, Mean: 5.92
Recombinant human LAT1 [2]; 10 [] M compound
  Dose-response analysis, single experiments: 0.00
  Dose-response analysis, Mean: 0.00
Recombinant human LAT1 [2]; 25 [] M compound
  Dose-response analysis, Mean: 13.53
Recombinant human LAT1 [2]; 50 [] M compound
  Dose-response analysis, Mean: 2.08
Recombinant human LAT1 [2]; 100 [] M compound
  Dose-response analysis, Mean: 14.15

## CN(Cc1ccon1)C(C(=O)O)c1ccc(-n2cccn2)cc1 (stereo not drawn) [Compound 23]
Recombinant human LAT1 [2]
  % Residual Activity: 96.22%

## N[C@@H](CSC(c1ccccc1)(c1ccccc1)c1ccccc1)C(=O)O [Compound 39]
Recombinant human LAT1 [2]
  inhibition at 100 µM: 80 to 90%
  % Residual Activity: 11.76%

## Cc1cccnc1CN(C)C(C(=O)O)c1ccc(-n2cccn2)cc1 (stereo not drawn) [Compound 26]
Recombinant human LAT1 [2]
  % Residual Activity: 89.37%

## C=CCN(Cc1cccc(OCC(N)=O)c1)Cc1ccccc1C [Compound 15]
Recombinant human LAT1 [2]
  % Residual Activity: 92.21%

## N#Cc1c(-c2ccccc2-c2ccco2)cc(-c2cc(C(=O)O)[nH]n2)nc1N [Compound 13]
Recombinant human LAT1 [2]
  % Residual Activity: 74.23%

## N[C@@H](Cc1c[nH]c2ccc(OCc3ccccc3)cc12)C(=O)O [Compound 42]
Recombinant human LAT1 [2]
  IC50: 1480 ± 270 nM
  inhibition at 100 µM: > 90%
  LAT1 inhibition, activity in words: almost complete inhibition
  % Residual Activity: 7.83%
  times more potent than 1: ~four times more potent
Recombinant human LAT1 [2]; 0.1 [] M compound
  Dose-response analysis, single experiments: 91.01 and 109.97 and 91.55
  Dose-response analysis, Mean: 97.51
Recombinant human LAT1 [2]; 0.2 [] M compound
  Dose-response analysis, single experiments: 77.34 and 82.24 and 73.67
  Dose-response analysis, Mean: 77.75
Recombinant human LAT1 [2]; 0.5 [] M compound
  Dose-response analysis, single experiments: 72.30 and 76.32 and 64.01
  Dose-response analysis, Mean: 70.88
Recombinant human LAT1 [2]; 1 [] M compound
  Dose-response analysis, single experiments: 64.39 and 51.09 and 41.55
  Dose-response analysis, Mean: 52.34
Recombinant human LAT1 [2]; 2.5 [] M compound
  Dose-response analysis, single experiments: 42.45 and 36.45 and 24.15
  Dose-response analysis, Mean: 34.35
Recombinant human LAT1 [2]; 5 [] M compound
  Dose-response analysis, Mean: 29.11
Recombinant human LAT1 [2]; 10 [] M compound
  Dose-response analysis, Mean: 18.24
Recombinant human LAT1 [2]; 25 [] M compound
  Dose-response analysis, Mean: 21.07
Recombinant human LAT1 [2]; 50 [] M compound
  Dose-response analysis, single experiments: 12.95 and 13.71 and 13.30
  Dose-response analysis, Mean: 13.32
Recombinant human LAT1 [2]; 100 [] M compound
  Dose-response analysis, Mean: 14.52

## Cc1nnc(-c2ccccc2-c2ccc(CNS(C)(=O)=O)cc2)o1 [Compound 14]
Recombinant human LAT1 [2]
  % Residual Activity: 95.87%

## COc1ccc(CSCC(N)C(=O)O)cc1Br (stereo not drawn) [Compound 28]
Recombinant human LAT1 [2]
  IC50: 33200 ± 4500 nM
  inhibition at 100 µM: 80 to 100%
  LAT1 inhibition, activity in words: highly active
  % Residual Activity: 12.93%
Recombinant human LAT1 [2]; 0.1 [] M compound
  Dose-response analysis, single experiments: 98.56 and 118.69 and 87.20
  Dose-response analysis, Mean: 101.48
Recombinant human LAT1 [2]; 0.2 [] M compound
  Dose-response analysis, single experiments: 109.35 and 122.43 and 93.48
  Dose-response analysis, Mean: 108.42
Recombinant human LAT1 [2]; 0.5 [] M compound
  Dose-response analysis, single experiments: 112.59 and 110.90 and 85.27
  Dose-response analysis, Mean: 102.92
Recombinant human LAT1 [2]; 1 [] M compound
  Dose-response analysis, single experiments: 120.86 and 119.63 and 97.34
  Dose-response analysis, Mean: 112.61
Recombinant human LAT1 [2]; 2.5 [] M compound
  Dose-response analysis, single experiments: 84.89 and 85.98 and 94.20
  Dose-response analysis, Mean: 88.36
Recombinant human LAT1 [2]; 5 [] M compound
  Dose-response analysis, single experiments: 79.14 and 103.43 and 83.33
  Dose-response analysis, Mean: 88.63
Recombinant human LAT1 [2]; 10 [] M compound
  Dose-response analysis, single experiments: 96.40 and 89.72 and 73.19
  Dose-response analysis, Mean: 86.44
Recombinant human LAT1 [2]; 25 [] M compound
  Dose-response analysis, single experiments: 57.91 and 52.02 and 47.58
  Dose-response analysis, Mean: 52.51
Recombinant human LAT1 [2]; 50 [] M compound
  Dose-response analysis, Mean: 38.86
Recombinant human LAT1 [2]; 100 [] M compound
  Dose-response analysis, Mean: 24.50

## CN(Cc1cc(Br)cc(Br)c1N)C1CCCCC1 [Compound 29]
Recombinant human LAT1 [2]
  % Residual Activity: 98.42%

## CCn1cnnc1C(C)NC(=O)c1ccc2[nH]c(=O)c(=O)[nH]c2c1 (stereo not drawn) [Compound 16]
Recombinant human LAT1 [2]
  % Residual Activity: 95.1%

## NC1(C(=O)O)CCCC1Cc1ccc(Cl)cc1 (stereo not drawn) [Compound 32]
Recombinant human LAT1 [2]
  LAT1 inhibition, activity in words: moderately active; also recorded: modest affinity
  % Residual Activity: 53.11%

## NC1(C(=O)O)CCc2ccccc2C1 (stereo not drawn) [Compound 8, 2-Amino-1,2,3,4-tetrahydro-2-naphthoic acid]
LAT1
  times more potent than 10: 9

## N[C@@H](Cc1ccc(OCc2c(Cl)cccc2Cl)cc1)C(=O)O [Compound 38]
Recombinant human LAT1 [2]
  inhibition at 100 µM: 80 to 90%
  % Residual Activity: 13.17%
